Measured values as given in patent US9539298B2, “Lissencephaly therapeutic agent” (OSAKA CITY UNIVERSITY, priority 2010, dated 2017).

Tested on: LIS1 heterozygous newborn mice
Test: LIS1 protein in newborn mouse brains after SNJ-1945 oral administration
Format: in vivo
Experimental: A neo(−)129S-Pafah1b1^tm2Awb/J homozygous male mouse lacking neo gene was mated with five homozygous EII-Cre transgenic female mice (FVB/N-Tg (EIIa-cre) C5379Lmgd/J, The Jackson Laboratory) by raising them in the same mouse cage. In total, six sets of mouse cages were prepared for the mating experiment. A newborn was defined at the time of delivery confirmation, which was conducted every morning. SNJ-1945 was dissolved in dimethyl sulfoxide (DMSO) at a concentration of 100 mg/ml, and orally administered using pipettes to the newborn mice in an amount of 200 μg/per gram of body weight.
To determine the effect of SNJ-1945 administration, LIS1 proteins of normal newborn mice and LIS1 heterozygous newborn mice (administered with SNJ-1945) were measured. In the SNJ-1945 administration group, the brain tissues were taken at 0 hour (immediately after the administration), 1 hour, 2 hours, 4 hours, 8 hours, 12 hours, 16 hours, 24 hours, 48 hours, and 72 hours after the administration to measure LIS1 protein, so as to determine the effect of SNJ-1945 over time. Six mice for each group were used for the measurement of LIS1 protein (n=6).
The newborn mice were killed by cutting off their heads, and the brain tissues thereof were immediately isolated. For the measurement of LIS1 protein amount, the weight of the brains was immediately measured as soon as the brains were removed.

COCCOCCOC(=O)N[C@@H](CC(C)C)C(=O)N[C@@H](Cc1ccccc1)C(=O)C(=O)NC1CC1 [compound 17, ((1S)-1-((((1S)-1-Benzyl-2,3-dioxo-3-(cyclopropylamino)propyl)amino)carbonyl)-3-methylbutyl)carbamic acid 5-methoxy-3-oxapentyl ester]
LIS1 protein amount in newborn brain (200 μg per gram of body weight, oral, FIG. 7): recovered to substantially the normal level
duration of the effect on LIS1 protein after a single dose (200 μg/g oral): continued for at least three days
